In the assay the target is Serine/threonine-protein kinase pim-1 (Homo sapiens, UniProt P11309). Description: Radioactive Filter Plate Assay. To be noted: pH 7.5; 23 °C. As to the method: PIM-1 kinase activity was evaluated using calf thymus histones as the substrate in a 96-well filter plate format. After incubation, the plate was washed and dried. The scintillation cocktail was added and the radioactivity counted on a TopCount plate reader (Perkin-Elmer).

Broadly, the IC50 is the midpoint of a concentration-inhibition curve.

Chain of Serine/threonine-protein kinase pim-1 (P11309 whole entry): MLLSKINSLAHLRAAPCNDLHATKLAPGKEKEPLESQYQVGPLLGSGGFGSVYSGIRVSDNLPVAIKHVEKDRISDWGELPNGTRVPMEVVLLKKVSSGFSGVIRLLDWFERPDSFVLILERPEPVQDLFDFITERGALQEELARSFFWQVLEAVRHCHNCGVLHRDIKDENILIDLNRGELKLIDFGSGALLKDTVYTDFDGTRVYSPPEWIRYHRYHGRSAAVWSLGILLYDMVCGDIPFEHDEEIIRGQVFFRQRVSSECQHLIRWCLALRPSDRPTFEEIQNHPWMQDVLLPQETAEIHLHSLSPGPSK

As to `N#Cc1c(-c2cccs2)c2c([nH]c1=O)-c1ccccc1OC2` [4-oxo-6-(thiophen-2-yl)-9-oxa-3-azatricyclo[8.4.0.0^{2,7}]tetradeca-1(14),2(7),5,10,12-pentaene-5-carbonitrile], the IC50 came to 0.46 µM.
As for `N#Cc1c(-c2ccco2)c2c([nH]c1=O)-c1ccccc1OC2` [6-(furan-2-yl)-4-oxo-9-oxa-3-azatricyclo[8.4.0.0^{2,7}]tetradeca-1(14),2(7),5,10,12-pentaene-5-carbonitrile], the IC50 is 0.87 µM.
Regarding `N#Cc1c(-c2cccs2)c2c([nH]c1=O)-c1ccccc1SC2` [4-oxo-6-(thiophen-2-yl)-9-thia-3-azatricyclo[8.4.0.0^{2,7}]tetradeca-1(10),2(7),5,11,13-pentaene-5-carbonitrile], the IC50 worked out at 1.49 µM.
On to `N#Cc1c(-c2cccs2)cc(-c2cccs2)nc1O` [2-oxo-4,6-bis(thiophen-2-yl)-1,2-dihydropyridine-3-carbonitrile], for which the IC50 was 0.99 µM.
Consider `N#Cc1c(-c2cccs2)cc(C(F)(F)F)[nH]c1=O` [2-oxo-4-(thiophen-2-yl)-6-(trifluoromethyl)-1,2-dihydropyridine-3-carbonitrile], for which the IC50 is 3.54 µM.
In the case of `N#Cc1c(C(F)(F)F)cc(-c2ccco2)[nH]c1=O` [6-(furan-2-yl)-2-oxo-4-(trifluoromethyl)-1,2-dihydropyridine-3-carbonitrile], the IC50 was determined as 16 µM.

Source of the values: BindingDB's records for doi:10.1016/j.bmcl.2006.12.086 (Valeant Pharmaceuticals Research and Development, 2007).
